Measurements: patent publication US9643964B2, “3-(2-aminopyrimidin-4-yl)-5-(3-hydroxypropynyl)-1H-pyrrolo[2,3-C]pyridine derivatives as NIK inhibitors for the treatment of cancer” (Janssen Pharmaceutica NV, priority 2013, dated 2017)

Tests used:
JJN-3 cells = experiment: Biological Assay C: antiproliferative activity on JJN-3 cells (CellTiter-Glo); type: cell-based, human; settings: 72 hr treatment, averaged values
Experimental: (§1) Determination of Antiproliferative Activity on LP-1, L-363 and JJN-3 Cells
(§2) All compounds tested were dissolved in DMSO and further dilutions were made in culture medium. Final DMSO concentration was 0.3% (v/v) in cell proliferation assays. Viability was assessed using CellTiter-Glo cell viability assay kit (Promega). The human LP-1, L-363 and JJN-3 cells (DSMZ) were cultured in RPMI 1640 medium supplemented with 2 mM L-glutamine, and 10% fetal calf serum (PAA). Cells were routinely kept as suspension cells at 37° C. in a humidified 5% CO2 atmosphere. Cells were passaged at a seeding density of 0.2×10^6/ml twice a week. Cells were seeded in black tissue culture treated 96-well plates (Perkin Elmer). Densities used for plating ranged from 2,000 to 6,000 cells per well in a total volume of 75 μl medium. After twenty four hours, drugs and/or solvents were added (25 μl) to a final volume of 100 μl. Following 72 hr of treatment plates were removed from the incubator and allowed to equilibrate to room temperature for approx 10 min. 100 μl CellTiter-Glo reagent was added to each well that was then covered (Perkin Elmer Topseal) and shaken on plate shaker for 10 min. Luminescence was measured on a HTS Topcount (Perkin Elmer). Within an experiment, the results for each treatment were the mean of 2 replicate wells. For initial screening purposes, compounds were tested using a 9 point dilution curve (serial 1:3 dilutions). For each experiment, controls (containing no drug) and a blank incubation (containing cells read at the time of compound addition) were run in parallel. The blank value was subtracted from all control and sample values. For each sample, the mean value for cell growth (in relative light units) was expressed as a percentage of the mean value for cell growth of the control.

[1] = molecular target: Recombinant Human NF-kappaB-Inducing Kinase (NIK/MAP3K14) (Homo sapiens, UniProt Q99558); experiment: Biological Assay A2: inhibition of auto-phosphorylation of recombinant human NIK/MAP3K14 (AlphaScreen); type: biochemical; settings: auto-phosphorylation; averaged over all measurements on all batches; read-out: αscreen IC50
Experimental: Inhibition of Auto-Phosphorylation of Recombinant Human NF-kappaB-Inducing Kinase (NIK/MAP3K14) Activity (AlphaScreen®)
NIK/MAP3K14 auto-phosphorylation activity was measured using the AlphaScreen® (αscreen) format (Perkin Elmer). All compounds tested were dissolved in dimethyl sulfoxide (DMSO) and further dilutions were made in assay buffer. Final DMSO concentration was 1% (v/v) in assays. Assay buffer was 50 mM Tris pH 7.5 containing 1 mM EGTA (ethylene glycol tetraacetic acid), 1 mM DTT (dithiothreitol), 0.1 mM Na3VO4, 5 mM MgCl2, 0.01% Tween 20. Assays were carried out in 384 well Alphaplates (Perkin Elmer). Incubations consisted of compound, 25 microM Adenosine-5′-triphosphate (ATP), and 0.2 nM NIK/MAP3K14. Incubations were initiated by addition of GST-tagged NIK/MAP3K14 enzyme, carried out for 1 h at 25° C. and terminated by addition of stop buffer containing anti-phospho-IKK Ser176/180 antibody. Protein A Acceptor and Glutathione-Donor beads were added before reading using an EnVision® Multilabel Plate Reader (Perkin Elmer). Signal obtained in the wells containing blank samples was subtracted from all other wells and IC50's were determined by fitting a sigmoidal curve to % inhibition of control versus Log10 compound concentration.

LP-1 cells = experiment: Biological Assay C: antiproliferative activity on LP-1 cells (CellTiter-Glo); type: cell-based, human; settings: 72 hr treatment, averaged values
Experimental: as §1, §2

L-363 cells = experiment: Biological Assay C: antiproliferative activity on L-363 cells (CellTiter-Glo); type: cell-based, human; settings: 72 hr treatment, averaged values
Experimental: as §1, §2

Chain of Recombinant Human NF-kappaB-Inducing Kinase (NIK/MAP3K14) (Q99558 whole entry): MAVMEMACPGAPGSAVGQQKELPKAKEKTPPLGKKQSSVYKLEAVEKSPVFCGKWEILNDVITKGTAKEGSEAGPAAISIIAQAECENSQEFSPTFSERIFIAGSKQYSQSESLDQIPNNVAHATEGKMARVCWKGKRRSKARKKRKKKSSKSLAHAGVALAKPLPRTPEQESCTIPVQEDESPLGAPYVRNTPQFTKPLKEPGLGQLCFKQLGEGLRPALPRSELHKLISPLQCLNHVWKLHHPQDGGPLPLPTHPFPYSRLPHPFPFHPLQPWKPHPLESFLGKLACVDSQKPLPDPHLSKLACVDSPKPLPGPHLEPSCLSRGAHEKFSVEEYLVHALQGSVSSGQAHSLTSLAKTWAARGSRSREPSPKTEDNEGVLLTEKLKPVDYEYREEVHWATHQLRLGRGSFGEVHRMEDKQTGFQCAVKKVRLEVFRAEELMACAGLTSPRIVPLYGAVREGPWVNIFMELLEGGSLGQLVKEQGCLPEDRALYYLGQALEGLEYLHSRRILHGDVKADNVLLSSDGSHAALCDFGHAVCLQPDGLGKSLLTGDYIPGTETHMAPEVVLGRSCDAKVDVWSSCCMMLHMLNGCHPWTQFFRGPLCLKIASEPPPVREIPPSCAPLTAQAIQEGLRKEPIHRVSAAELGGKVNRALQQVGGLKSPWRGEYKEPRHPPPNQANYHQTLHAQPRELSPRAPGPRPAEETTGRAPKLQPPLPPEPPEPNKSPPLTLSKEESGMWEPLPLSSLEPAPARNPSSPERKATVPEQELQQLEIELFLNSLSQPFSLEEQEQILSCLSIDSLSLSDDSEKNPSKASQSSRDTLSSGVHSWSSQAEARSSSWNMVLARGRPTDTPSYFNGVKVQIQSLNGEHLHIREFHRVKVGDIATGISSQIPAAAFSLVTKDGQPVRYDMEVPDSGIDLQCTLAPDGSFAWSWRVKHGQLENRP

Row | IC50 [1] [nM] | SMILES | EC50 (JJN-3 cells; Homo sapiens, JJN-3, 72 h) [nM] | EC50 (LP-1 cells; Homo sapiens, LP-1, 72 h) [nM] | EC50 (L-363 cells; Homo sapiens, L-363, 72 h) [nM] | EC50 (JJN-3 cells) [nM] | EC50 (LP-1 cells) [nM] | EC50 (L-363 cells) [nM]
1 | 86 | COCCCn1cc(-c2nc(N)ncc2C)c2cc(C#CC(C)(C)O)ncc21 [Compound 83] | 670 | 4700 | 550 | – | – | –
2 | 36 | COCCOc1cnc(N)nc1-c1cn(C(C)C)c2cnc(C#CC(C)(O)C3CC3)cc12 (stereo not shown) [Compound 168] | 27 | 93 | 23 | – | – | –
3 | 73 | CC(O)(C#Cc1cc2c(-c3nc(N)ncc3F)cn(C3CCN(CCF)CC3)c2cn1)C1CC1 (stereo not shown) [Compound 163] | 110 | 110 | 59 | – | – | –
4 | 53 | CC(O)(C#Cc1cc2c(-c3nc(N)ncc3F)cn(C3CN(C4CC4)C3)c2cn1)C1CC1 (stereo not shown) [Compound 104] | 260 | 470 | 180 | – | – | –
5 | 61 | CC(O)(C#Cc1cc2c(-c3nc(N)ncc3C(F)(F)F)cn(C3COC3)c2cn1)C1CC1 (stereo not shown) [Compound 100] | 1400 | 3000 | 1500 | – | – | –
6 | 180 | CCN1CCOC(Cn2cc(-c3nc(N)ncc3F)c3cc(C#CC(C)(O)C4CC4)ncc32)C1 (stereo not shown) [Compound 127] | 240 | 420 | 190 | – | – | –
7 | 100 | CC(O)(C#Cc1cc2c(-c3nc(N)ncc3F)cn(C3CN(CC4CC4)C3)c2cn1)C1CC1 (stereo not shown) [Compound 140] | 170 | 320 | 140 | – | – | –
8 | 680 | CC(O)(C#Cc1cc2c(-c3nc(N)ncc3F)cn(C3COC3)c2cn1)C1CC1 (single isomer, unassigned) [Compound 121] | – | – | – | 1400 | 3400 | 1300
9 | 98 | CCCN1CC(n2cc(-c3nc(N)ncc3F)c3cc(C#CC(C)(O)C4CC4)ncc32)C1 (stereo not shown) [Compound 139] | 220 | 340 | 160 | – | – | –
10 | 180 | CCOCCN1CC(n2cc(-c3nc(N)ncc3F)c3cc(C#CC(C)(O)C4CC4)ncc32)C1 (stereo not shown) [Compound 158] | 440 | 740 | 390 | – | – | –
11 | 10 | COCCCn1cc(-c2nc(N)ncc2F)c2cc(C#CC3(O)CCCC3)nc(C3CC3)c21 [Compound 93] | 310 | 860 | 250 | – | – | –
12 | 23 | CC1(Cn2cc(-c3nc(N)ncc3F)c3cc(C#CC(C)(O)C4CC4)ncc32)COC1 (stereo not shown) [Compound 129] | 210 | 920 | 150 | – | – | –
13 | 9 | COCCCn1cc(-c2nc(N)ncc2F)c2cc(C#CC3(O)CCCC3)ncc21 [Compound 87] | 530 | 1200 | 450 | – | – | –
14 | 110 | CCN1CCCC(n2cc(-c3nc(N)ncc3F)c3cc(C#CC(C)(O)C4CC4)ncc32)C1 (stereo not shown) [Compound 138] | 94 | 250 | 80 | – | – | –
15 | 210 | CC(O)(C#Cc1cc2c(-c3nc(N)ncc3F)cn(C3CN(C4CCCC4)C3)c2cn1)C1CC1 (stereo not shown) [Compound 142] | 150 | 410 | 190 | – | – | –
16 | 270 | CC(C)N1CC(n2cc(-c3nc(N)ncc3F)c3cc(C#CC(C)(O)C4CC4)ncc32)C1 (stereo not shown) [Compound 159] | 230 | 320 | 180 | – | – | –
17 | 58 | CC(O)(C#Cc1cc2c(-c3nc(N)ncc3F)cn(C3CCN(CCC(F)(F)F)CC3)c2cn1)C1CC1 (stereo not shown) [Compound 167] | 390 | 1000 | 390 | – | – | –
18 | 340 | COCC(C)N1CC(n2cc(-c3nc(N)ncc3F)c3cc(C#CC(C)(O)C4CC4)ncc32)C1 (stereo not shown) [Compound 162] | 370 | 790 | 350 | – | – | –
19 | 22 | COc1cnc(N)nc1-c1cn(C(C)C)c2cnc(C#CC(C)(O)C3CC3)cc12 (stereo not shown) [Compound 149] | 38 | – | 22 | – | – | –

Row | IC50 [1] [nM] | SMILES | EC50 (JJN-3 cells; Homo sapiens, JJN-3, 72 h) [nM] | EC50 (LP-1 cells; Homo sapiens, LP-1, 72 h) [nM] | EC50 (L-363 cells; Homo sapiens, L-363, 72 h) [nM] | EC50 (JJN-3 cells) [nM] | EC50 (LP-1 cells) [nM] | EC50 (L-363 cells) [nM]
20 | 130 | CCCCC(=O)NCCCn1cc(-c2ccnc(N)n2)c2cc(C#CC(C)(C)O)ncc21 [Compound 147] | 1400 | – | 530 | – | – | –
21 | 11 | COCCCn1cc(-c2nc(N)ncc2F)c2cc(C#CC(C)(C)O)nc(C)c21 [Compound 86] | 9.2 | 16 | 5.9 | – | – | –
22 | 190 | COCCCN1CC(n2cc(-c3nc(N)ncc3F)c3cc(C#CC(C)(O)C4CC4)ncc32)C1 (stereo not shown) [Compound 156] | 320 | – | 360 | – | – | –
23 | 120 | CCN1CC(n2cc(-c3nc(N)ncc3F)c3cc(C#CC(C)(O)C4CC4)ncc32)C1 (stereo not shown) [Compound 136] | 240 | 450 | 140 | – | – | –
24 | 12 | COCCCn1cc(-c2nc(N)ncc2F)c2cc(C#CC(C)(O)c3cc(C)on3)ncc21 (stereo not shown) [Compound 91] | 1100 | 4900 | 470 | – | – | –
25 | 50 | Cc1nc(C#CC(C)(O)C2CC2)cc2c(-c3nc(N)ncc3F)cn(C3COC3)c12 (stereo not shown) [Compound 133] | 140 | 330 | 66 | – | – | –
26 | 46 | CC(O)(C#Cc1cc2c(-c3nc(N)ncc3F)cn(C3CN(C4CC4)C3)c2cn1)C1CC1 (single isomer, unassigned) [Compound 157] | 180 | – | 140 | – | – | –
27 | 190 | CC(=O)N1CC(n2cc(-c3nc(N)ncc3F)c3cc(C#CC(C)(O)C4CC4)ncc32)C1 (stereo not shown) [Compound 154] | 4700 | – | 2800 | – | – | –
28 | 64 | CC(=O)NCCCn1cc(-c2ccnc(N)n2)c2cc(C#CC(C)(C)O)ncc21 [Compound 148] | 9100 | – | 7600 | – | – | –
29 | 74 | CC(O)(C#Cc1cc2c(-c3nc(N)ncc3F)cn(C3CCN(CCF)C3)c2cn1)C1CC1 (stereo not shown) [Compound 153] | 130 | – | 150 | – | – | –
30 | 54 | CC(C)(O)C#Cc1cc2c(-c3nc(N)ncc3F)cn(C3CCN(CCF)C3)c2cn1 (stereo not shown) [Compound 151] | 46 | – | 45 | – | – | –
31 | 200 | CC(O)(C#Cc1cc2c(-c3nc(N)ncc3F)cn(C3CN(CC4CCCC4)C3)c2cn1)C1CC1 (stereo not shown) [Compound 146] | 450 | – | 580 | – | – | –
32 | 140 | CC(O)(C#Cc1cc2c(-c3nc(N)ncc3F)cn(C3CN(CC(F)(F)F)C3)c2cn1)C1CC1 (stereo not shown) [Compound 145] | 260 | – | 340 | – | – | –
33 | 37 | COCc1cnc(N)nc1-c1cn(C(C)C)c2cnc(C#CC(C)(C)O)cc12 [Compound 144] | 35 | – | 16 | – | – | –
34 | 140 | COCCN1CC(n2cc(-c3nc(N)ncc3F)c3cc(C#CC(C)(O)C4CC4)ncc32)C1 (stereo not shown) [Compound 155] | 400 | – | 380 | – | – | –
35 | 74 | COCc1cnc(N)nc1-c1cn(C(C)C)c2cnc(C#CC(C)(O)C3CC3)cc12 (stereo not shown) [Compound 143] | 270 | – | 170 | – | – | –
36 | 47 | CC(O)(C#Cc1cc2c(-c3nc(N)ncc3F)cn(C3CCN(CCC(F)(F)F)C3)c2cn1)C1CC1 (stereo not shown) [Compound 152] | 48 | – | 75 | – | – | –
37 | 210 | CC(C)n1cc(-c2nc(N)ncc2F)c2cc(C#CC3(O)CCN(C)C3=O)ncc21 (stereo not shown) [Compound 150] | 1600 | – | 1500 | – | – | –
